In patent EP4707280A1, “1,4-CINEOLE DERIVATIVE AND INTERMEDIATE THEREOF, HERBICIDE CONTAINING SAID DERIVATIVE AS ACTIVE INGREDIENT, METHOD FOR USING HERBICIDE, AND METHOD FOR PREPARING AGROCHEMICAL COMPOSITION” (HOKKO CHEMICAL INDUSTRY CO., LTD., priority 2023, dated 2024):

How the values were obtained:
Type in all cases: in vivo
Echinochloa crus-galli [1] = test: Test Example 7: herbicidal effect test by soil application in upland field (low dose); details: Echinochloa crus-galli, 7.5 g per 10 ares, sprayed one day after sowing, 14 days after application, read-out: weed inhibition rate
Experimental: (§1) The present test was conducted in duplicate for each chemical concentration group, and the weed inhibition rate (%) was determined 14 days after chemical application using the following formula (Math. 1). [formula]
(§2) Pots with an area of 36 cm^2 were filled with upland soil (alluvial loam), twenty seeds each of weeds of Digitaria ciliaris, and Echinochloa crus-galli were uniformly mixed with the top 1 cm layer of soil and the surface was lightly pressed down. One day after sowing, an emulsifiable concentrate prepared according to Formulation Example 5 using the compound shown below was diluted with water, and the diluted solution was sprayed onto the soil surface at a rate of 100 liters per 10 ares. The amount of the active ingredient to be applied was equivalent to 7.5 g per 10 ares. Fourteen days after chemical application, the herbicidal effect was evaluated according to the same criteria as in Test Example 1.

Digitaria ciliaris [2] = test: as above; details: Digitaria ciliaris, 7.5 g per 10 ares, sprayed one day after sowing, 14 days after application, read-out: weed inhibition rate
Experimental: as §1, §2

Echinochloa crus-galli [3] = test: Test Example 4: herbicidal effect test by stem and leaf treatment in upland field; details: Echinochloa crus-galli; 120 g per 10 ares; sprayed seven days after sowing, upland soil; 14 days after application; read-out: weed inhibition rate
[4] = tested on: Echinochloa crus-galli var. formosensis; test: Test Example 1: herbicidal effect test by soil application in paddy rice; details: Echinochloa crus-galli, soil, 336 h; 120 g active ingredient per 10 ares; applied immediately after sowing, flooded pots; 14 days after application; read-out: weed inhibition rate
Outline: (§3)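 Paddy soil in Wagner pots (1/10,000 acre), fertilized and puddled; 30 seeds per species sown at 0–1 cm, flooded to ~3 cm, greenhouse. Water-diluted emulsifiable concentrate dropped onto flooded pots right after sowing at 120 g active ingredient per 10 ares.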

Scirpus juncoides [5] = test: as above; details: Schoenoplectiella juncoides, soil, 336 h; 120 g active ingredient per 10 ares; applied immediately after sowing, flooded pots; 14 days after application; read-out: weed inhibition rate
Outline: as §3

Echinochloa crus-galli [6] = test: Test Example 8: herbicidal effect test by stem and leaf treatment in upland field (low dose); details: Echinochloa crus-galli; 7.5 g per 10 ares; sprayed seven days after sowing, upland soil; 14 days after application; read-out: weed inhibition rate
Digitaria ciliaris [7] = test: as above; details: Digitaria ciliaris; 7.5 g per 10 ares; sprayed seven days after sowing, upland soil; 14 days after application; read-out: weed inhibition rate
[8] = tested on: Echinochloa crus-galli var. formosensis; test: Test Example 2: herbicidal effect test by application during growth period of paddy rice; details: Echinochloa crus-galli; 120 g per 10 ares; applied seven days after sowing, flooded pots; 14 days after application; read-out: weed inhibition rate
Outline: (§4)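 Herbicidal effect was scored 14 days after treatment, in duplicate per concentration. Weeds sown 0–1 cm deep in puddled, fertilized paddy soil under about 3 cm of standing water received a water-diluted emulsifiable concentrate by dropper 7 days post-sowing, at 120 g a.i. per 10 ares.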

Scirpus juncoides [9] = test: as above; details: Schoenoplectiella juncoides; 120 g per 10 ares; applied seven days after sowing, flooded pots; 14 days after application; read-out: weed inhibition rate
Outline: as §4

[10] = tested on: Echinochloa crus-galli var. formosensis; test: Test Example 6: herbicidal effect test by application during growth period of paddy rice (low dose); details: Echinochloa crus-galli; 7.5 g per 10 ares; applied seven days after sowing, flooded pots; 14 days after application; read-out: weed inhibition rate
Outline: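 Paddy soil in flooded Wagner pots (about 3 cm water), weeds sown at 0–1 cm, 30 seeds each, grown in a glass greenhouse. Seven days after sowing, water-diluted emulsifiable concentrate was dropped into the water at 7.5 g active ingredient per 10 ares. Weed inhibition rate (%) was scored 14 days after application, in duplicate.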

Digitaria ciliaris [11] = test: Test Example 4: herbicidal effect test by stem and leaf treatment in upland field; details: Digitaria ciliaris; 120 g per 10 ares; sprayed seven days after sowing, upland soil; 14 days after application; read-out: weed inhibition rate
[12] = tested on: Echinochloa crus-galli var. formosensis; test: Test Example 5: herbicidal effect test by soil application in paddy rice (low dose); details: Echinochloa crus-galli, soil, 336 h; 7.5 g per 10 ares; applied immediately after sowing, flooded pots; 14 days after application; read-out: weed inhibition rate
Outline: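 Dose of 7.5 g a.i. per 10 ares, applied by dropper as diluted emulsifiable concentrate to flooded (~3 cm) paddy pots immediately after sowing seeds at 0–1 cm. Kept in a glass greenhouse; duplicate pots rated at 14 days post-application.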

Echinochloa crus-galli [13] = test: Test Example 3: herbicidal effect test by soil application in upland field; details: Echinochloa crus-galli, 120 g per 10 ares, sprayed one day after sowing, 14 days after application, read-out: weed inhibition rate
Outline: (§5)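 Pre-emergence test: seeds mixed into top 1 cm of alluvial loam upland soil in pots; emulsifiable concentrate diluted in water sprayed on soil one day after sowing at 100 L/10 a, 120 g a.i./10 a. Weed inhibition rate (%) scored at 14 days, in duplicate.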

Digitaria ciliaris [14] = test: as above; details: Digitaria ciliaris, 120 g per 10 ares, sprayed one day after sowing, 14 days after application, read-out: weed inhibition rate
Outline: as §5

CC(C)[C@]12C[C@@H](OCc3c(F)cccc3F)[C@](C)(C[C@@H]1I)O2 [1-778, (1R,2S,4S,5R)-5-[(2,6-difluorophenyl)methoxy]-2-iodo-1-isopropyl-4-methyl-7-oxabicyclo[2.2.1]heptane]
≥ 80%: inhibition at 75 g/ha (Echinochloa crus-galli [1]) | inhibition at 75 g/ha (Digitaria ciliaris [2]) | inhibition at 1200 g/ha (Echinochloa crus-galli [3]) | pest or weed control at 1200 g/ha [4] | pest or weed control at 1200 g/ha (Scirpus juncoides [5]) | inhibition at 75 g/ha (Echinochloa crus-galli [6]) | inhibition at 75 g/ha (Digitaria ciliaris [7]) | inhibition at 1200 g/ha [8] | inhibition at 1200 g/ha (Scirpus juncoides [9]) | inhibition at 75 g/ha [10] | inhibition at 1200 g/ha (Digitaria ciliaris [11]) | inhibition at 75 g/ha [12] | inhibition at 1200 g/ha (Echinochloa crus-galli [13]) | inhibition at 1200 g/ha (Digitaria ciliaris [14])

CC(C)C12CC(OCc3ccccc3Cl)C(C)(CC1I)O2 (stereo not shown) [1-1424, 5-[(2-chlorophenyl)methoxy]-2-iodo-1-isopropyl-4-methyl-7-oxabicyclo[2.2.1]heptane]
≥ 80%: inhibition at 75 g/ha (Echinochloa crus-galli [1]) | inhibition at 75 g/ha (Digitaria ciliaris [2]) | inhibition at 1200 g/ha (Echinochloa crus-galli [3]) | pest or weed control at 1200 g/ha [4] | pest or weed control at 1200 g/ha (Scirpus juncoides [5]) | inhibition at 75 g/ha (Echinochloa crus-galli [6]) | inhibition at 75 g/ha (Digitaria ciliaris [7]) | inhibition at 1200 g/ha [8] | inhibition at 1200 g/ha (Scirpus juncoides [9]) | inhibition at 75 g/ha [10] | inhibition at 1200 g/ha (Digitaria ciliaris [11]) | inhibition at 75 g/ha [12] | inhibition at 1200 g/ha (Echinochloa crus-galli [13]) | inhibition at 1200 g/ha (Digitaria ciliaris [14])

CC(C)C12CC(OCc3ccccc3C#N)C(C)(CC1Cl)O2 (stereo not shown) [1-1304, 2-[(5-chloro-1-methyl-4-isopropyl-7-oxabicyclo[2.2.1]heptan-2-yl)oxymethyl]benzonitrile]
≥ 80%: inhibition at 75 g/ha (Echinochloa crus-galli [1]) | inhibition at 75 g/ha (Digitaria ciliaris [2]) | inhibition at 1200 g/ha (Echinochloa crus-galli [3]) | pest or weed control at 1200 g/ha [4] | pest or weed control at 1200 g/ha (Scirpus juncoides [5]) | inhibition at 75 g/ha (Echinochloa crus-galli [6]) | inhibition at 75 g/ha (Digitaria ciliaris [7]) | inhibition at 1200 g/ha [8] | inhibition at 1200 g/ha (Scirpus juncoides [9]) | inhibition at 75 g/ha [10] | inhibition at 1200 g/ha (Digitaria ciliaris [11]) | inhibition at 75 g/ha [12] | inhibition at 1200 g/ha (Echinochloa crus-galli [13]) | inhibition at 1200 g/ha (Digitaria ciliaris [14])

CC(C)C12CC(OCc3ccccc3Cl)C(C)(CC1Cl)O2 (stereo not shown) [1-1292, 5-chloro-2-[(2-chlorophenyl)methoxy]-1-methyl-4-isopropyl-7-oxabicyclo[2.2.1]heptane]
≥ 80%: inhibition at 75 g/ha (Echinochloa crus-galli [1]) | inhibition at 75 g/ha (Digitaria ciliaris [2]) | inhibition at 1200 g/ha (Echinochloa crus-galli [3]) | pest or weed control at 1200 g/ha [4] | pest or weed control at 1200 g/ha (Scirpus juncoides [5]) | inhibition at 75 g/ha (Echinochloa crus-galli [6]) | inhibition at 75 g/ha (Digitaria ciliaris [7]) | inhibition at 1200 g/ha [8] | inhibition at 1200 g/ha (Scirpus juncoides [9]) | inhibition at 75 g/ha [10] | inhibition at 1200 g/ha (Digitaria ciliaris [11]) | inhibition at 75 g/ha [12] | inhibition at 1200 g/ha (Echinochloa crus-galli [13]) | inhibition at 1200 g/ha (Digitaria ciliaris [14])

CCNC(=O)O[C@H]1C[C@]2(C)O[C@@]1(C(C)C)C[C@H]2OCc1ccccc1F [1-1615, [(1R,2S,4S,5R)-5-[(2-fluorophenyl)methoxy]-1-isopropyl-4-methyl-7-oxabicyclo[2.2.1]heptan-2-yl] N-ethylcarbamate]
≥ 80%: inhibition at 75 g/ha (Echinochloa crus-galli [1]) | inhibition at 75 g/ha (Digitaria ciliaris [2]) | inhibition at 1200 g/ha (Echinochloa crus-galli [3]) | pest or weed control at 1200 g/ha [4] | pest or weed control at 1200 g/ha (Scirpus juncoides [5]) | inhibition at 75 g/ha (Echinochloa crus-galli [6]) | inhibition at 75 g/ha (Digitaria ciliaris [7]) | inhibition at 1200 g/ha [8] | inhibition at 1200 g/ha (Scirpus juncoides [9]) | inhibition at 75 g/ha [10] | inhibition at 1200 g/ha (Digitaria ciliaris [11]) | inhibition at 75 g/ha [12] | inhibition at 1200 g/ha (Echinochloa crus-galli [13]) | inhibition at 1200 g/ha (Digitaria ciliaris [14])
